Measured values from article PMC11550483 (2024).
Like-named read-outs stand apart in the source and are kept apart here. Where a SMILES comes first, the peptide text is derived from it.

Key:
HCoV-NL63 M^pro = HCoV-NL63 M^pro (Human coronavirus NL63, UniProt P0C6X5); assay type: cell-based; settings: read-out: EC50 NL63 M^pro inhibition, cellular gain-of-signal
SARS2 replication = settings: read-out: EC50 against SARS2 replication; cited from earlier work
SARS2 M^pro = settings: cited from earlier work
293T cells = settings: up to the highest tested concentration (100 μM)

Sequence of HCoV-NL63 M^pro (P0C6X5 2940-3242): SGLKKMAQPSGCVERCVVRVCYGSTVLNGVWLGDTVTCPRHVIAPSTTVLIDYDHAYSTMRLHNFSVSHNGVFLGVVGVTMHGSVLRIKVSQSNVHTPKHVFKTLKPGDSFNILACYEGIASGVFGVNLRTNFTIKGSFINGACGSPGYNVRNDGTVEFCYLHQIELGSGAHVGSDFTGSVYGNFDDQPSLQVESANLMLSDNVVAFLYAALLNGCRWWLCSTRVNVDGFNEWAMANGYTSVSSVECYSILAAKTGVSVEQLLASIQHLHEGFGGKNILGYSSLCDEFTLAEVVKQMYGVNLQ

SMILES: CC(C)C[C@H](NC(=O)OCc1ccccc1)C(=O)N[C@@H](CC1CCNC1=O)C(O)S(=O)(=O)O (some centres unmarked) [GC376]
- EC50 (HCoV-NL63 M^pro): 770 nM

SMILES: O=C(NCc1cccs1)C1CN(C(=O)c2cccnc2)CCN1c1ccc(Cl)c(Cl)c1 (centres unmarked) [GC-14, reference compound]
- EC50 (SARS2 replication): 1100 nM
- IC50 (SARS2 M^pro; read-out: IC50 in a similar biochemical assay, ref [60]–[61]): 400 nM

SMILES: CSCCC(C=O)NC(=O)C(CC(C)C)NC(=O)C(CC(C)C)NC(C)=O (stereo not drawn) [MWAC-0001889, CSCCC(NC(=O)C(CC(C)C)NC(=O)C(CC(C)C)NC(=O)C)C=O] (Ac-Leu-Leu-Met-aldehyde; configuration not given here)
- toxicity in 293T cells (293T cells): no toxicity
- IC50 (SARS2 M^pro; read-out: IC50 SARS2 M^pro in a biochemical assay, ref [29],[32],[39],[58],[59]): 970 nM
